From ChEMBL document CHEMBL3132769, “Fragment growing to retain or alter the selectivity of anchored kinase hinge-binding fragments” (Medchemcomm, 2014)

How the values were obtained:
[1] = molecular target: Casein kinase I isoform delta (Homo sapiens) (UniProt P48730); test: Inhibition of human CK1D catalytic domain expressed in Escherichia coli cell assessed as substrate phosphorylation using fluorescence-labelled peptides as substrate at 0.2 uM after 90 mins by microfluidic peptide phosphorylation assay
Chain of Casein kinase I isoform delta (Homo sapiens) (P48730 whole entry, looked up, the tested form may be a part, canonical isoform): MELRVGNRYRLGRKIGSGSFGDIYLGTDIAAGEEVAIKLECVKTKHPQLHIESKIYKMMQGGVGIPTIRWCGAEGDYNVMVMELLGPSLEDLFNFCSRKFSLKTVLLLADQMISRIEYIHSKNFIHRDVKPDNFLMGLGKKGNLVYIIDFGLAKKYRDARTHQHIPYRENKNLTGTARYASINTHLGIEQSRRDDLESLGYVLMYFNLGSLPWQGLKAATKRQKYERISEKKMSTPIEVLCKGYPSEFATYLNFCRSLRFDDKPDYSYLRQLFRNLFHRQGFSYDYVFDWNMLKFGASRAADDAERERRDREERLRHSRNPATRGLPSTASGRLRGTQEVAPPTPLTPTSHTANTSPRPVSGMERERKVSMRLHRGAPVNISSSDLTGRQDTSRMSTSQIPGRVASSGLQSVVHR

[2] = molecular target: T1, Protein kinase C zeta type (Homo sapiens) (UniProt Q05513); test: Inhibition of human full length PKC zeta expressed in baculovirus assessed as substrate phosphorylation using fluorescence-labelled peptides as substrate at 8 uM after 90 mins by microfluidic peptide phosphorylation assay
T1 sequence (whole entry): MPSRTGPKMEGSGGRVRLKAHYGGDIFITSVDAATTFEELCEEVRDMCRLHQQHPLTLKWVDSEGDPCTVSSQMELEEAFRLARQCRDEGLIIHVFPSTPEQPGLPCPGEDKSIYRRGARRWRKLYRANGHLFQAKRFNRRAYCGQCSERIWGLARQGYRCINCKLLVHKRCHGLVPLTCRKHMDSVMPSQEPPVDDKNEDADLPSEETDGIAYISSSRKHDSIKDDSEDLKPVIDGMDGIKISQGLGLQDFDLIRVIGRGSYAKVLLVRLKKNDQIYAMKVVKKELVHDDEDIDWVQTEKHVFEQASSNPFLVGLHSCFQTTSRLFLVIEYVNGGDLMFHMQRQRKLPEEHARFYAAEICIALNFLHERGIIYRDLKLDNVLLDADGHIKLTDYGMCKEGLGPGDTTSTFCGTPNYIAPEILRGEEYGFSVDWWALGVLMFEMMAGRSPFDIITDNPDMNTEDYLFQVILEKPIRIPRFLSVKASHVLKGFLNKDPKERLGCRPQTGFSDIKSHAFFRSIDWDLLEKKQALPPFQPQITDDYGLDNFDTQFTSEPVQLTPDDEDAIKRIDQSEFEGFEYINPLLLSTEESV

[3] = molecular target: Tyrosine-protein kinase Lck (Homo sapiens) (UniProt P06239); test: Inhibition of human full length LCK expressed in baculovirus assessed as substrate phosphorylation using fluorescence-labelled peptides as substrate at 2 uM after 90 mins by microfluidic peptide phosphorylation assay
Chain of Tyrosine-protein kinase Lck (Homo sapiens) (P06239 2-509 limits assumed): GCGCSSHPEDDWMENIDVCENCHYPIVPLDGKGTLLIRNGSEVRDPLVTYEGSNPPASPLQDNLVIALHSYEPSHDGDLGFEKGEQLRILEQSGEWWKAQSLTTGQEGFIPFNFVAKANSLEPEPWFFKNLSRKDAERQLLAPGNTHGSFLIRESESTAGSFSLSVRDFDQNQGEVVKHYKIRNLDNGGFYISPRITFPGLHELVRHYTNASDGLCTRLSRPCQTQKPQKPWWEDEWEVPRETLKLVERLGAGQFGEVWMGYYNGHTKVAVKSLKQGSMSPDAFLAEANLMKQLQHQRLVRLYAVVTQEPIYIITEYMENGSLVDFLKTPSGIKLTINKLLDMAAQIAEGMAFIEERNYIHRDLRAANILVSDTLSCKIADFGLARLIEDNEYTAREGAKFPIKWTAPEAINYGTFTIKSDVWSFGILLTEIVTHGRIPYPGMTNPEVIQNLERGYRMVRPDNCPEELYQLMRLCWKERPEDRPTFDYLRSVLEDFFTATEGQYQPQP

[4] = molecular target: T2, Serine/threonine-protein kinase Sgk2 (Homo sapiens) (UniProt Q9HBY8); test: Inhibition of human full length SGK2 expressed in baculovirus assessed as substrate phosphorylation using fluorescence-labelled peptides as substrate at 1000 uM after 90 mins by microfluidic peptide phosphorylation assay
T2 sequence (whole entry): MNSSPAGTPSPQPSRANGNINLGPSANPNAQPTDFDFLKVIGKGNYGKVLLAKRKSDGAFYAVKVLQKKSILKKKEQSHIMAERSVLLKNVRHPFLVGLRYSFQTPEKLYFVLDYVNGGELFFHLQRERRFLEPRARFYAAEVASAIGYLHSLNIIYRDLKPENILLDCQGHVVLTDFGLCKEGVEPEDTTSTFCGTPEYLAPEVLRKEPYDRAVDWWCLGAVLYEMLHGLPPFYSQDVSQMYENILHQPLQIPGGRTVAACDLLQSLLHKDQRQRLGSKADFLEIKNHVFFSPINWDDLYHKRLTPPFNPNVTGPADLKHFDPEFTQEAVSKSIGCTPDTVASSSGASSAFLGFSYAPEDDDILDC

[5] = molecular target: Serine/threonine-protein kinase MARK1 (Homo sapiens) (UniProt Q9P0L2); test: Inhibition of human full length MARK1 expressed in baculovirus assessed as substrate phosphorylation using fluorescence-labelled peptides as substrate at 0.06 uM after 90 mins by microfluidic peptide phosphorylation assay
Chain of Serine/threonine-protein kinase MARK1 (Homo sapiens) (Q9P0L2 whole entry, looked up, the tested form may be a part): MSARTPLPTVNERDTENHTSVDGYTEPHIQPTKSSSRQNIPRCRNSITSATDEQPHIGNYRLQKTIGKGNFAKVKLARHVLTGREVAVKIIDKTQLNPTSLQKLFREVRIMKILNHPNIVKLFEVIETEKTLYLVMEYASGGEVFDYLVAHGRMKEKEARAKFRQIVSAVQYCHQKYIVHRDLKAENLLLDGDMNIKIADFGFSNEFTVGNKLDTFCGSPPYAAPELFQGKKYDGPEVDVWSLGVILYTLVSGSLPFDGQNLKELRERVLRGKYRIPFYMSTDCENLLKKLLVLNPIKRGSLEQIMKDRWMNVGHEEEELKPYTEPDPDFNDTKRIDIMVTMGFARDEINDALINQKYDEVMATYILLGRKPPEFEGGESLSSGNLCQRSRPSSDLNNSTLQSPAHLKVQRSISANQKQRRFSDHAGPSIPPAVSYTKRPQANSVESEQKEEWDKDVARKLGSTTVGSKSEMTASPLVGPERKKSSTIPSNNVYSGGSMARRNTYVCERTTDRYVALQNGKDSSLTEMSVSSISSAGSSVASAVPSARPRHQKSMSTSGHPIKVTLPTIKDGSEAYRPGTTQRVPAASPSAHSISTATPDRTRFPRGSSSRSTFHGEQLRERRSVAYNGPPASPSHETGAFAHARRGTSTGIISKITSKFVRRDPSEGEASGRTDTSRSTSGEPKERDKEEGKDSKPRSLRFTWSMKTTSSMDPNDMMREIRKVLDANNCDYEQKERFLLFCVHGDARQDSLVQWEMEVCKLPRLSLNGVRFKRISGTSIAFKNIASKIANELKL

[6] = molecular target: Protein kinase C gamma type (Homo sapiens) (UniProt P05129); test: Inhibition of human truncated PKC gamma expressed in baculovirus assessed as substrate phosphorylation using fluorescence-labelled peptides as substrate at 0.1 uM after 90 mins by microfluidic peptide phosphorylation assay
[7] = molecular target: Rho-associated protein kinase 2 (Homo sapiens) (UniProt O75116); test: Inhibition of human ROCK2 catalytic domain expressed in baculovirus assessed as substrate phosphorylation using fluorescence-labelled peptides as substrate at 9 uM after 90 mins by microfluidic peptide phosphorylation assay
Chain of Rho-associated protein kinase 2 (Homo sapiens) (O75116 whole entry, looked up, the tested form may be a part): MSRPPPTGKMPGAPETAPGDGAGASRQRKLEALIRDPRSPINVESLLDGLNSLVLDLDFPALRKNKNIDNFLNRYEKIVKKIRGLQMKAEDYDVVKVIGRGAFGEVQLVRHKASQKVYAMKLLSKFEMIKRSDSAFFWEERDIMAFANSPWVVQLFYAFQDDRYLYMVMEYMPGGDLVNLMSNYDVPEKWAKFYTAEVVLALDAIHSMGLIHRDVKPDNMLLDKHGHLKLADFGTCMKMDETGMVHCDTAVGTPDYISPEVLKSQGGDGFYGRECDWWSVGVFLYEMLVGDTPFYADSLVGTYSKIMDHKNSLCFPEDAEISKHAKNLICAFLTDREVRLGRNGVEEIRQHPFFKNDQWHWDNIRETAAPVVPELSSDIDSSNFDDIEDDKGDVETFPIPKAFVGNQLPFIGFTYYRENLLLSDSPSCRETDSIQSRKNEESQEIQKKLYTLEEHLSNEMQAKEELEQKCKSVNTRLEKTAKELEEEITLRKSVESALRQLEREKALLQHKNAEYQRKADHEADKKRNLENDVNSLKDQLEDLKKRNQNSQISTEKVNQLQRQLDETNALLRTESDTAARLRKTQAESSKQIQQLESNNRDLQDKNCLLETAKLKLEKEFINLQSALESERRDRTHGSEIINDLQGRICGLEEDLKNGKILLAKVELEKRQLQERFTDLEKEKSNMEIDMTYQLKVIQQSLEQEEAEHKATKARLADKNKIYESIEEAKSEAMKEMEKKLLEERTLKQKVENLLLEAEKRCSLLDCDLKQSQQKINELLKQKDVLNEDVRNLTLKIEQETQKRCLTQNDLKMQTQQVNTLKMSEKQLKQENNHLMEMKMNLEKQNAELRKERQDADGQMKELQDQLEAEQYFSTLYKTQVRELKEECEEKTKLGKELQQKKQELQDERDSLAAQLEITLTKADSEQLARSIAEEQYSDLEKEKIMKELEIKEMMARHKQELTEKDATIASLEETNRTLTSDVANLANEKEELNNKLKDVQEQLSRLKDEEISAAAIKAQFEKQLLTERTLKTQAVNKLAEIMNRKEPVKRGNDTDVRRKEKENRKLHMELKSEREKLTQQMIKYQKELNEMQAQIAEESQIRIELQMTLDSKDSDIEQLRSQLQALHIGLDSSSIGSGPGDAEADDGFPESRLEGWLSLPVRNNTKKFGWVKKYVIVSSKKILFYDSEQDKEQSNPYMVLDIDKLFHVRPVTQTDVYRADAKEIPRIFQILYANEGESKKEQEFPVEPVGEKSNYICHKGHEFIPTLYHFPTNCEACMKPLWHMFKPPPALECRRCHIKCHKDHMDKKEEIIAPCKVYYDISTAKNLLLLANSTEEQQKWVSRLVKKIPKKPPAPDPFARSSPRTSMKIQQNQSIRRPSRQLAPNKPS

[8] = molecular target: T3, Interleukin-1 receptor-associated kinase 4 (Homo sapiens) (UniProt Q9NWZ3); test: Inhibition of human IRAK4 catalytic domain expressed in baculovirus assessed as substrate phosphorylation using fluorescence-labelled peptides as substrate at 9 uM after 90 mins by microfluidic peptide phosphorylation assay
T3 sequence (whole entry): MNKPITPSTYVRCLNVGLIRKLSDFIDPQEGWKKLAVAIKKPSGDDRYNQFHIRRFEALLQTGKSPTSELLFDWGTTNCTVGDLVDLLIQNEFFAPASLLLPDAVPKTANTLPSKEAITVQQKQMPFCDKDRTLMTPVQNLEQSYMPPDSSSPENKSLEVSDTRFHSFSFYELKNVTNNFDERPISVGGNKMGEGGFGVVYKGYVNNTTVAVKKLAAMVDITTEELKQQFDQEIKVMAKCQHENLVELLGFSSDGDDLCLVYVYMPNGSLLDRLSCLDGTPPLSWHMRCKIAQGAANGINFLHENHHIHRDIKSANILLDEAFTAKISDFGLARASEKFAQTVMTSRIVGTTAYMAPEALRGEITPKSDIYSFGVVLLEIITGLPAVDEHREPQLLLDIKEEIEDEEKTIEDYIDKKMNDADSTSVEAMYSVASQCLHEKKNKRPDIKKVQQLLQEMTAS

[9] = molecular target: Protein kinase C delta type (Homo sapiens) (UniProt Q05655); test: Inhibition of human truncated PKC delta expressed in baculovirus assessed as substrate phosphorylation using fluorescence-labelled peptides as substrate at 70 uM after 90 mins by microfluidic peptide phosphorylation assay
Chain of Protein kinase C delta type (Homo sapiens) (Q05655 whole entry, looked up, the tested form may be a part): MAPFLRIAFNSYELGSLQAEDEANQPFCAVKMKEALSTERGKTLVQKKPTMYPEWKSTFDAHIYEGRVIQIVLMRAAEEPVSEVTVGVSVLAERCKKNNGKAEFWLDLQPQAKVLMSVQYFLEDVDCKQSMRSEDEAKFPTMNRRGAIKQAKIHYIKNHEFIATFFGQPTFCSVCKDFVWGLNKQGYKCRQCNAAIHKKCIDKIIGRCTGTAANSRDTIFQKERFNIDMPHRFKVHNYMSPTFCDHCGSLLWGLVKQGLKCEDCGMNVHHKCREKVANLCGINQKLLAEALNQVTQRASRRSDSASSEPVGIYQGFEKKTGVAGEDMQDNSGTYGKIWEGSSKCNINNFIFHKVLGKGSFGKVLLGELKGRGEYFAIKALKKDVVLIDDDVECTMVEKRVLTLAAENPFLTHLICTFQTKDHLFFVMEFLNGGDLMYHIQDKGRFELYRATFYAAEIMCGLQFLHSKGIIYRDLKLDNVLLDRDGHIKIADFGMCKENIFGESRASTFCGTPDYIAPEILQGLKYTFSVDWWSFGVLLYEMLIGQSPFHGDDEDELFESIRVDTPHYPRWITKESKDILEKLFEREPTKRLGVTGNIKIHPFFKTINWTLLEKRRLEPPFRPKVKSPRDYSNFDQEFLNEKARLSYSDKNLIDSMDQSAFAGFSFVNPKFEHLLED

[10] = molecular target: T4, Mitogen-activated protein kinase 12 (Homo sapiens) (UniProt P53778); test: Inhibition of human full length p38 gamma expressed in Escherichia coli cell assessed as substrate phosphorylation using fluorescence-labelled peptides as substrate at 70 uM after 90 mins by microfluidic peptide phosphorylation assay
T4 sequence (whole entry): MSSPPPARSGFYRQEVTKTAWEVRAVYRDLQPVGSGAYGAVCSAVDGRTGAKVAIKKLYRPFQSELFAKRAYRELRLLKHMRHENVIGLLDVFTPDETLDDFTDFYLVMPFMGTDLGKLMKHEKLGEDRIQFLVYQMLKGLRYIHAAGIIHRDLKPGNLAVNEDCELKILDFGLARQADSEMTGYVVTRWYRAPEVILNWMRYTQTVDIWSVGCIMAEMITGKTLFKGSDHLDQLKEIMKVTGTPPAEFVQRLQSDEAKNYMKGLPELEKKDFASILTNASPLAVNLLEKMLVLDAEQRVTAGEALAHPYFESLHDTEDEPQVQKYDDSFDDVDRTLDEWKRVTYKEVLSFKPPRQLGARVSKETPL

## Clc1ccc(C2(c3ccc(-c4ncnc5[nH]cnc45)cc3)CCNCC2)cc1
[1]
  inhibition: 8.5%

## NCC1CCN(c2ncnc3[nH]ccc23)CC1
[2]
  inhibition: 67.5%

## NC1CCN(c2ncnc3[nH]ccc23)CC1
[3]
  inhibition: 4.5%

## c1cnc2[nH]ccc2c1
[4]
  inhibition: 64%

## NC1(Cc2ccc(Cl)cc2)CCN(c2ncnc3[nH]ccc23)CC1
[5]
  inhibition: 4.5%

## C[C@H](CN(C)C)Oc1nc(Nc2cc3cccc(Cl)c3cn2)cnc1C#N
[6]
  inhibition: 6%

## NCC1CN(c2ncnc3[nH]c4cnccc4c23)CCO1 (stereo not given)
[7]
  inhibition: 53%
[8]
  inhibition: 56.5%

## CNCc1ccc(-c2ncnc3[nH]cnc23)cc1
[9]
  inhibition: 60%
[10]
  inhibition: 15%
